Source: article PMC4063695, “Design of Embedded-Hybrid Antimicrobial Peptides with Enhanced Cell Selectivity and Anti-Biofilm Activity” (PLoS ONE, 2014)
No end group written: not given here.

What was measured:
[1] = system: E. coli UB1005; experiment: Cytoplasmic membrane electrical potential, diSC3-5; type: cell-based, Escherichia coli; conditions: diSC3-5 release over 600 s
Protocol: Peptides could alter the electrical potential of cytoplasmic membrane, and this potential that was measured by using E. coli UB1005 cells and diSC3-5 (Sigma), a membrane potential-sensitive fluorescent dye, as previously described, [35]. E. coli UB1005 was cultured to logarithmic phase in MHB, harvested by centrifugation, washed twice with buffer (5 mM of HEPES and 20 mM of glucose, pH 7.4) and resuspended to an OD600 of 0.05 in the identical buffer. The dye (diSC3-5) was added to above buffer at a final concentration of 0.4 µM. And the bacteria were incubated to take up the dye for 90 min. KCl was added to a final concentration of 0.1 M for equilibrating K^+ concentration between extracellular and intracellular environment, and then the bacteria were incubated at room temperature for 10 min. The cell suspension (2 ml) was placed in a 1-cm cuvette, and the peptides were added to different concentrations. The fluorescence intensity changes were monitored by using an F-4500 fluorescence spectrophotometer (Hitachi, Japan) with an excitation wavelength of 622 nm and an emission wavelength of 670 nm.

[2] = system: S.epidermidis ATCC12228; conditions: S.epidermidis ATCC12228; MHB, 37°C, 18-24 h; at least three times in duplicate
Excerpt: (§1) E. coli ATCC25922, P. aeruginosa ATCC27853, S. aureus ATCC29213, S. epidermidis ATCC12228, S. faecalis ATCC29212 and B. subtilis CMCC63501 were obtained from the College of Veterinary Medicine, Northeast Agricultural University (Harbin, China), E. coli K88, E. coli CVCC1515 and P. aeruginosa ATCC15442 were bestowed by Prof. J.H. Wang (Gene Engineering Laboratory, Feed Research Institute, Chinese Academy of Agricultural Sciences Beijing, China) and E. coli UB1005 was kindly provided by Prof. Q.S. Qi (State Key Laboratory of Microbial Technology, Shandong University, China). […] Briefly, 50 µl of approximate 0.5–1 × 10^6 colony forming units (CFU)/ml of cells were diluted in Mueller-Hinton broth and distributed to 96-well plate, 50 µl of twofold peptides were added and the plates was incubated at 37°C for 18–24 h. The MIC values were calculated as the lowest peptide concentration that prevented visible turbidity and negative control of the pure broth without microbes. The tests were performed at least three times in duplicate.

[3] = system: S.faecalis ATCC29212; conditions: S.faecalis ATCC29212; MHB, 37°C, 18-24 h; at least three times in duplicate
Excerpt: as §1

[4] = system: E. coli ATCC25922; conditions: E. coli ATCC25922; MHB, 37°C, 18-24 h; at least three times in duplicate
Excerpt: as §1

[5] = system: S. pullorum C79-13; conditions: S. pullorum C79-13; MHB, 37°C, 18-24 h; at least three times in duplicate
Excerpt: as §1

[6] = system: P. aeruginosa variant 1; conditions: P. aeruginosa variant 1, obtained by step-wise culture with ciprofloxacin hydrochloride; MHB, 37°C, 18-24 h
Excerpt: as §1

[7] = system: E. coli CVCC1515; conditions: E. coli CVCC1515; MHB, 37°C, 18-24 h; at least three times in duplicate
Excerpt: as §1

[8] = system: P. aeruginosa ATCC15442; conditions: P. aeruginosa ATCC15442; MHB, 37°C, 18-24 h; at least three times in duplicate
Excerpt: as §1

[9] = system: P. aeruginosa variant 2; conditions: P. aeruginosa variant 2, obtained by step-wise culture with gentamicin; MHB, 37°C, 18-24 h
Excerpt: as §1

[10] = system: human red blood cells (hRBC); experiment: Hemolytic activity; type: cell-based; conditions: minimum concentration that caused 5% hemolysis of hRBC (footnote); 1% hRBC in PBS pH 7.4, 1 h, 37°C, OD 492 nm
Protocol: The amount of released hemoglobin by the lysis of erythrocytes was measured for hemolytic activity of peptides. Human erythrocytes were obtained from a healthy donor with written informed consent. The experimental protocol was reviewed and approved by the ethics committee of the Northeast Agricultural University Hospital. The measurement was based on a previously described method. The fresh hRBCs were washed three times by centrifugation (1000 g, 5 min, 4°C) in PBS (pH 7.4), and then resuspended in PBS to obtain the erythrocyte with a dilution of approximately 1% (v/v). Then, 50 µL of hRBCs solution was incubated with 50 µL of different concentrations of the peptides dissolved in PBS for 1 h at 37°C, before centrifugation (1000 g, 5 min, 4°C) again. The absorbance of the supernatants was measured at optical density (OD) 492 nm. […] The control samples for 0% and 100% hemolysis consisted of hRBCs in PBS (Ablank) only and in 0.1% Triton X-100 (Atriton), respectively. The percentage of hemolysis was calculated according to the following equation: [drawing 3]

[11] = system: E. coli ATCC25922; experiment: MIC in the presence of physiological salts; type: cell-based, Escherichia coli; parameters: unit not given here
Excerpt: as §1
The stability of peptides was tested in the MIC assay in different environments, including salt sensitivity, human serum, thermal stability and susceptibility to enzymes. For salt sensitivity, 0.5–1 × 10^6 CFU/ml of P. aeruginosa ATCC27853 and E. coli ATCC25922 were treated with peptides, while different salts were added to MHB, and the final concentrations of physiological salts were as follows: 150 mM NaCl, 4.5 mM KCl, 1 mM MgCl2, 6 µM NH4Cl, 8 µM ZnCl2, 4 µM FeCl3 and […] [33]. Except salt sensitivity, only E. coli ATCC25922 was treated with peptides. […] For testing peptide sensitivity to the proteolytic enzymes, the peptides were incubated in advance at 37°C for 1 h with a 1 mg/ml final concentration of the proteolytic enzymes (trypsin, pepsin, papain and proteinase K). For testing thermal stability, incubation occurred at 100°C for 1 h. After these treatments, the procedures were same as MIC assay described above.

[12] = system: Gram-negative and Gram-positive strains; experiment: MIC over all tested strains (range, geometric mean); type: cell-based; parameters: GM (geometric mean of MIC values from all microbial strains): unit not given here; conditions: all strains of Table 2
Excerpt: as §1

## RFRRLFRIRVRVLKKI-NH2 [R-FV-I16]
[1]
  cytoplasmic membrane depolarization (in words): able to permeabilize the bacterial cell membrane even at a lower concentration than their MICs
[2]
  MIC: 4 µM
[3]
  MIC: 1 µM
[4]
  MIC: 1 µM
[5]
  MIC: 1 µM
[6]
  MIC: 2 µM
[7]
  MIC: 2 µM
[8]
  MIC: 2 µM
[9]
  MIC: 4 µM
[10]
  MHC: 128 µM
[11]; 4 µM FeCl3 in MHB
  MIC, FeCl3: 1
[11]; 6 µM NH4Cl in MHB
  MIC, NH4Cl: 1
[11]; 8 µM ZnCl2 in MHB
  MIC, ZnCl2: 1
[11]; 1 mM MgCl2 in MHB
  MIC, MgCl2: 4
[11]; 4.5 mM KCl in MHB
  MIC, KCl: 1
[11]; 150 mM NaCl in MHB
  MIC, NaCl: 4
[11]; all kinds of salts in physiological concentrations
  MIC, Mix: 8
[11]; in MHB
  MIC, CaCl2: 1
[11]; no added salts, unit not given
  MIC, Control: 1
[12]
  GM (geometric mean of MIC values from all microbial strains): 2
